Measurements published in patent US20230255953A1, “USE OF ROLUPERIDONE IN PREVENTING RELAPSE IN SCHIZOPHRENIA PATIENTS” (Minerva Neurosciences, Inc., priority 2022, published 2023).

System: patients with negative symptoms of schizophrenia
Assay: Integrated analysis (pooled ITT): CGI-S and CGI-I
Format: in vivo, human
Settings: for CGI-I Score, Difference (95% CI) in LS mean (vs placebo) / CGI-I Score, LS mean (SE) / CGI-I Score, Mean (SD) / CGI-I Score, Median / CGI-S Score change from Baseline, LS mean (SE) / CGI-S Score change from Baseline, Mean (SD) / CGI-S Score change from Baseline, Median / CGI-S Score, Difference (95% CI) in LS mean (vs placebo): DB; for CGI-I Score, Difference (95% CI) in LS mean (vs placebo) / CGI-I Score, LS mean (SE) / CGI-I Score, Mean (SD) / CGI-I Score, Median / CGI-S Score change from Baseline, LS mean (SE) / CGI-S Score change from Baseline, Mean (SD) / CGI-S Score change from Baseline, Median / CGI-S Score, Difference (95% CI) in LS mean (vs placebo) / CGI-I score, LS mean compared with placebo / CGI-S score, LS mean change from Baseline compared with placebo: pooled ITT; for Clinical Global Impression of Severity, Change from Baseline (LS Means [SEM]) / Clinical Global Impression of Improvement (LS Means [SEM]): ITT; for Clinical Global Impression of Improvement (LS Means [SEM]): observed data, MMRM with Baseline CGI-S as covariate
Source text: The primary integrated analysis of the efficacy of Roluperidone compared with placebo for the treatment of negative symptoms of schizophrenia is based on the change from Baseline in the PANSS Marder's negative symptoms factor score (in this document referred to as NSFS) to Week 12. Efficacy is also supported by the analysis of change from Baseline in the PSP Total score and the CGI-S to Week 12.
The CGI-S is a clinician-rated scale that is designed to rate the severity of the patient's illness at the time of assessment, including knowledge of the patient's history, psychosocial circumstances, symptoms, behavior, and the impact of the symptoms on the patient's ability to function relative to the clinician's past experience with patients who have the same diagnosis and similar improvement with treatment. Considering total clinical experience, a patient is assessed on severity of mental illness at the time of rating, where 1=normal (not at all ill); 2=borderline mentally ill; 3=mildly ill; 4=moderately ill; 5=markedly ill; 6=severely ill; or 7=extremely ill.
The Efficacy data from Study Nos. 1 and 2 were pooled. The majority of patients in the pooled ITT population completed the DB period (502 patients overall, 66.3%), with similar rates in each treatment group (placebo: 69.8%, 32 mg Roluperidone: 65.3%, and 64 mg Roluperidone: 63.8%) (Table 12). The majority (62.7%) of those who completed the DB period entered the OL period. The most common reason for discontinuation during the DB period among patients overall was withdrawal of consent (15.6%), followed by adverse events (7.3%) and lack of efficacy (5.4%) (Table 12). […] Approximately twice as many patients in the Roluperidone groups (32 mg: 8.5%; 64 mg: 9.1%) discontinued due to adverse events compared with patients in the placebo group (4.3%). More patients in the placebo group discontinued due to lack of efficacy (6.7%) than in the Roluperidone groups (32 mg: 4.4%; 64 mg: 5.1%). The low number of patients who discontinued due to lack of efficacy or withdrawal of consent probably reflects a low level of worsening of positive symptoms.
The integrated analysis supporting the efficacy of Roluperidone as a treatment for the negative symptoms of schizophrenia in adults is presented below.

1H-Isoindol-1-one,2-[ [1-[2-(4-fluorophenyl)-2-oxoethyl]-4-piperidinyl]methyl]-2,3-dihydro-, hydrochloride, hydrate (1:1:2) [Roluperidone]
CGI-I Score, Difference (95% CI) in LS mean (vs placebo) (32 mg, Week 2): 0.0
CGI-I Score, LS mean (SE) (32 mg, Week 2): 3.9 (0.05)
CGI-I Score, Mean (SD) (32 mg, Week 2): 3.9 (0.68)
CGI-I Score, Median (32 mg, Week 2): 4.0
CGI-S Score change from Baseline, LS mean (SE) (32 mg, Week 2): −0.1 (0.04)
CGI-S Score change from Baseline, Mean (SD) (32 mg, Week 2): −0.1 (0.47)
CGI-S Score change from Baseline, Median (32 mg, Week 2): 0.0
CGI-S Score, Difference (95% CI) in LS mean (vs placebo) (32 mg, Week 2): 0.0
CGI-I Score, Difference (95% CI) in LS mean (vs placebo) (32 mg, Week 4): −0.2
CGI-I Score, LS mean (SE) (32 mg, Week 4): 3.6 (0.05)
CGI-I Score, Mean (SD) (32 mg, Week 4): 3.6 (0.76)
CGI-I Score, Median (32 mg, Week 4): 4.0
CGI-S Score change from Baseline, LS mean (SE) (32 mg, Week 4): −0.1 (0.03)
CGI-S Score change from Baseline, Mean (SD) (32 mg, Week 4): −0.1 (0.50)
CGI-S Score change from Baseline, Median (32 mg, Week 4): 0.0
CGI-S Score, Difference (95% CI) in LS mean (vs placebo) (32 mg, Week 4): −0.1
CGI-I Score, Difference (95% CI) in LS mean (vs placebo) (32 mg, Week 8): −0.1
CGI-I Score, LS mean (SE) (32 mg, Week 8): 3.5 (0.06)
CGI-I Score, Mean (SD) (32 mg, Week 8): 3.4 (0.80)
CGI-I Score, Median (32 mg, Week 8): 3.0
CGI-S Score change from Baseline, LS mean (SE) (32 mg, Week 8): −0.2 (0.04)
CGI-S Score change from Baseline, Mean (SD) (32 mg, Week 8): −0.3 (0.58)
CGI-S Score change from Baseline, Median (32 mg, Week 8): 0.0
CGI-S Score, Difference (95% CI) in LS mean (vs placebo) (32 mg, Week 8): −0.1
CGI-I Score, Difference (95% CI) in LS mean (vs placebo) (32 mg, Week 12): −0.0
CGI-I Score, LS mean (SE) (32 mg, Week 12): 3.5 (0.07)
CGI-I Score, Mean (SD) (32 mg, Week 12): 3.4 (0.82)
CGI-I Score, Median (32 mg, Week 12): 3.0
CGI-S Score change from Baseline, LS mean (SE) (32 mg, Week 12): −0.3 (0.05)
CGI-S Score change from Baseline, Mean (SD) (32 mg, Week 12): −0.4 (0.65)
CGI-S Score change from Baseline, Median (32 mg, Week 12): 0.0
CGI-S Score, Difference (95% CI) in LS mean (vs placebo) (32 mg, Week 12): −0.1
Clinical Global Impression of Severity, Change from Baseline (LS Means [SEM]) (32 mg, Week 12): −0.3 (0.05)
Clinical Global Impression of Improvement (LS Means [SEM]) (32 mg, Week 12): 3.5 (0.07)
CGI-I score, LS mean compared with placebo (32 mg, Week 12): −0.0
CGI-S score, LS mean change from Baseline compared with placebo (32 mg, Week 12): −0.1
CGI-I Score, Difference (95% CI) in LS mean (vs placebo) (64 mg, Week 2): 0.0
CGI-I Score, LS mean (SE) (64 mg, Week 2): 3.8 (0.05)
CGI-I Score, Mean (SD) (64 mg, Week 2): 3.8 (0.74)
CGI-I Score, Median (64 mg, Week 2): 4.0
CGI-S Score change from Baseline, LS mean (SE) (64 mg, Week 2): −0.1 (0.04)
CGI-S Score change from Baseline, Mean (SD) (64 mg, Week 2): −0.1 (0.55)
CGI-S Score change from Baseline, Median (64 mg, Week 2): 0.0
CGI-S Score, Difference (95% CI) in LS mean (vs placebo) (64 mg, Week 2): −0.0
CGI-I Score, Difference (95% CI) in LS mean (vs placebo) (64 mg, Week 4): −0.2
CGI-I Score, LS mean (SE) (64 mg, Week 4): 3.6 (0.05)
CGI-I Score, Mean (SD) (64 mg, Week 4): 3.5 (0.72)
CGI-I Score, Median (64 mg, Week 4): 4.0
CGI-S Score change from Baseline, LS mean (SE) (64 mg, Week 4): −0.2 (0.03)
CGI-S Score change from Baseline, Mean (SD) (64 mg, Week 4): −0.3 (0.56)
CGI-S Score change from Baseline, Median (64 mg, Week 4): 0.0
CGI-S Score, Difference (95% CI) in LS mean (vs placebo) (64 mg, Week 4): −0.2
CGI-I Score, Difference (95% CI) in LS mean (vs placebo) (64 mg, Week 8): −0.2
CGI-I Score, LS mean (SE) (64 mg, Week 8): 3.4 (0.06)
CGI-I Score, Mean (SD) (64 mg, Week 8): 3.4 (0.81)
CGI-I Score, Median (64 mg, Week 8): 3.0
CGI-S Score change from Baseline, LS mean (SE) (64 mg, Week 8): −0.3 (0.04)
CGI-S Score change from Baseline, Mean (SD) (64 mg, Week 8): −0.3 (0.66)
CGI-S Score change from Baseline, Median (64 mg, Week 8): 0.0
CGI-S Score, Difference (95% CI) in LS mean (vs placebo) (64 mg, Week 8): −0.2
CGI-I Score, Difference (95% CI) in LS mean (vs placebo) (64 mg, Week 12): −0.2
CGI-I Score, LS mean (SE) (64 mg, Week 12): 3.4 (0.07)
CGI-I Score, Mean (SD) (64 mg, Week 12): 3.3 (0.85)
CGI-I Score, Median (64 mg, Week 12): 3.0
CGI-S Score change from Baseline, LS mean (SE) (64 mg, Week 12): −0.4 (0.05)
CGI-S Score change from Baseline, Mean (SD) (64 mg, Week 12): −0.4 (0.69)
CGI-S Score change from Baseline, Median (64 mg, Week 12): 0.0
CGI-S Score, Difference (95% CI) in LS mean (vs placebo) (64 mg, Week 12): −0.2
Clinical Global Impression of Severity, Change from Baseline (LS Means [SEM]) (64 mg, Week 12): −0.4 (0.05)
Clinical Global Impression of Improvement (LS Means [SEM]) (64 mg, Week 12): 3.4 (0.07)
CGI-I score, LS mean compared with placebo (64 mg, Week 12): −0.2
CGI-S score, LS mean change from Baseline compared with placebo (64 mg, Week 12): −0.2
CGI-I Score, Mean (SD) (Roluperidone Total, Week 2): 3.9 (0.71)
CGI-I Score, Median (Roluperidone Total, Week 2): 4.0
CGI-S Score change from Baseline, Mean (SD) (Roluperidone Total, Week 2): −0.1 (0.51)
CGI-S Score change from Baseline, Median (Roluperidone Total, Week 2): 0.0
CGI-I Score, Mean (SD) (Roluperidone Total, Week 4): 3.6 (0.74)
CGI-I Score, Median (Roluperidone Total, Week 4): 4.0
CGI-S Score change from Baseline, Mean (SD) (Roluperidone Total, Week 4): −0.2 (0.54)
CGI-S Score change from Baseline, Median (Roluperidone Total, Week 4): 0.0
CGI-I Score, Mean (SD) (Roluperidone Total, Week 8): 3.4 (0.81)
CGI-I Score, Median (Roluperidone Total, Week 8): 3.0
CGI-S Score change from Baseline, Mean (SD) (Roluperidone Total, Week 8): −0.3 (0.62)
CGI-S Score change from Baseline, Median (Roluperidone Total, Week 8): 0.0
CGI-I Score, Mean (SD) (Roluperidone Total, Week 12): 3.3 (0.83)
CGI-I Score, Median (Roluperidone Total, Week 12): 3.0
CGI-S Score change from Baseline, Mean (SD) (Roluperidone Total, Week 12): −0.4 (0.67)
CGI-S Score change from Baseline, Median (Roluperidone Total, Week 12): 0.0
